The results in this text go back to ChEMBL document CHEMBL3044802, “Synthesis, in vitro antimicrobial and antioxidant activities of chalcone and flavone derivatives holding allylic substitutions” (Med Chem Res, 2011).

≈ marks a conversion by molar mass, not a printed value. Where only a bound is given, the exact number is not on record here.

System in the first experiment: not listed separately
Briefly: Antioxidant activity assessed as Fe2+ reducing power after 20 min. The format is functional.
In general, IC50 refers to the concentration that gives 50% inhibition. On to `C=CCOc1c(/C=C/C(=O)c2cccc(CC=C)c2O)cccc1OC`, for which the concentration for half-maximal inhibition (IC50) came out at 1.87 µM.

`C=CCOc1ccc(/C=C/C(=O)c2cccc(CC=C)c2O)cc1OC`: the IC50 was 2.96 µM.

As to `C=CCOc1c(OC)cccc1-c1cc(=O)c2cccc(CC=C)c2o1`, the IC50 amounted to 1.11 µM.

Turning to `C=CCOc1ccc(-c2cc(=O)c3cccc(CC=C)c3o2)cc1OC`, the IC50 came out at 0.57 µM.

`Cc1c(C)c2c(c(C)c1O)CCC(C)(C(=O)O)O2` (stereo not given) [TROLOX]: the IC50 was found to be 41.9 µM.

A further experiment deals with Radical scavenging activity. The experiment in a line: Antioxidant activity assessed as DPPH free radical scavenging activity after 30 min by UV-VIS spectrophotometer analysis. It counts as functional. (DPPH is a stable violet radical that fades when it is reduced.)
On to `C=CCOc1c(/C=C/C(=O)c2cccc(CC=C)c2O)cccc1OC`, for which the IC50 came out at 163 µM.

With `C=CCOc1ccc(/C=C/C(=O)c2cccc(CC=C)c2O)cc1OC`, the IC50 was 85 µM.

Consider `C=CCOc1c(OC)cccc1-c1cc(=O)c2cccc(CC=C)c2o1`, for which the IC50 turned out to be 320 µM.

As to `C=CCOc1ccc(-c2cc(=O)c3cccc(CC=C)c3o2)cc1OC`, the IC50 turned out to be 270 µM.

Consider `Cc1c(C)c2c(c(C)c1O)CCC(C)(C(=O)O)O2` (stereo not given) [TROLOX], for which the IC50 came out at 36 µM.

Another experiment has as its system Kluyveromyces marxianus. The experiment in a line: Antimicrobial activity against Kluyveromyces marxianus after overnight incubation by conventional agar-dilution method. The format is functional.
What is called MIC is the lowest concentration that inhibits growth of the organism. As to `C=CCOc1c(/C=C/C(=O)c2cccc(CC=C)c2O)cccc1OC`, the MIC came to 512 µg/mL (≈ 1460 µM).

In turn, `C=CCOc1ccc(/C=C/C(=O)c2cccc(CC=C)c2O)cc1OC` came in with an MIC of 512 µg/mL (≈ 1460 µM).

`C=CCOc1c(OC)cccc1-c1cc(=O)c2cccc(CC=C)c2o1` gave an MIC of 512 µg/mL (≈ 1470 µM).

Turning to `C=CCOc1ccc(-c2cc(=O)c3cccc(CC=C)c3o2)cc1OC`, the minimal inhibitory concentration (MIC) is above 512 µg/mL.

Turning to `OC(Cn1cncn1)(Cn1cncn1)c1ccc(F)cc1F` [FLUCONAZOLE], the MIC came out at 4 µg/mL (≈ 13.1 µM).

Another experiment relates to Staphylococcus epidermidis. The experiment in a line: Antimicrobial activity against Staphylococcus epidermidis after overnight incubation by conventional agar-dilution method. It counts as functional.
Compound `C=CCOc1c(/C=C/C(=O)c2cccc(CC=C)c2O)cccc1OC` yielded an MIC above 1000 µg/mL.

`C=CCOc1ccc(/C=C/C(=O)c2cccc(CC=C)c2O)cc1OC` showed an MIC above 1000 µg/mL.

In turn, `C=CCOc1c(OC)cccc1-c1cc(=O)c2cccc(CC=C)c2o1` gave an MIC above 1000 µg/mL.

`C=CCOc1ccc(-c2cc(=O)c3cccc(CC=C)c3o2)cc1OC` showed an MIC above 1000 µg/mL.

`Cc1cc(NS(=O)(=O)c2ccc(N)cc2)no1` [SULFAMETHOXAZOLE] displayed an MIC of 4 µg/mL (≈ 15.8 µM).

Another experiment relates to Staphylococcus aureus. Briefly: Antimicrobial activity against Staphylococcus aureus after overnight incubation by conventional agar dilution method. It counts as functional. Background: In agar dilution, organisms are placed on agar that contains the substance at set levels.
`C=CCOc1c(/C=C/C(=O)c2cccc(CC=C)c2O)cccc1OC` registered a minimal inhibitory concentration (MIC) above 1000 µg/mL.

Regarding `C=CCOc1ccc(/C=C/C(=O)c2cccc(CC=C)c2O)cc1OC`, the MIC is above 1000 µg/mL.

On to `C=CCOc1c(OC)cccc1-c1cc(=O)c2cccc(CC=C)c2o1`, for which the MIC is above 1000 µg/mL.

With `C=CCOc1ccc(-c2cc(=O)c3cccc(CC=C)c3o2)cc1OC`, the MIC is above 1000 µg/mL.

Consider `Cc1cc(NS(=O)(=O)c2ccc(N)cc2)no1` [SULFAMETHOXAZOLE], for which the MIC is 4 µg/mL (≈ 15.8 µM).

For a further experiment, the system named is Escherichia coli. The experiment in a line: Antimicrobial activity against Escherichia coli after overnight incubation by conventional agar-dilution method. The format is functional.
`C=CCOc1c(/C=C/C(=O)c2cccc(CC=C)c2O)cccc1OC`: the minimum inhibitory concentration (MIC) is 512 µg/mL (≈ 1460 µM).

For `C=CCOc1ccc(/C=C/C(=O)c2cccc(CC=C)c2O)cc1OC`, the lowest concentration to inhibit growth (MIC) was 512 µg/mL (≈ 1460 µM).

`C=CCOc1c(OC)cccc1-c1cc(=O)c2cccc(CC=C)c2o1` registered an MIC above 512 µg/mL.

The compound `C=CCOc1ccc(-c2cc(=O)c3cccc(CC=C)c3o2)cc1OC` gave an MIC above 512 µg/mL.

On to `Cc1cc(NS(=O)(=O)c2ccc(N)cc2)no1` [SULFAMETHOXAZOLE], for which the minimum inhibitory concentration (MIC) was found to be 4 µg/mL (≈ 15.8 µM).
